According to US20260231944A1, “ANTISEPTIC CONDITIONING FORMULATIONS” (THOMMES MEDICAL AG, priority 2023, published 2026):
Each block holds one compound with its values, some of them ahead of it.

What was measured:
[1] = test system: Human periodontal ligament fibroblasts (HPDLF); experiment: cell viability of human primary cells after antiseptics in T. buffer, AlamarBlue assay; type: cell-based
Experimental: Human periodontal ligament fibroblasts (HPDLF) were used in this study as test system, imitating closer the in vivo situation. The fibroblasts were purchased from ATCC and cultured in ScienCell FM medium, supplemented with 2% fetal bovine serum, 1% fibroblast growth factor and 1% penicillin-streptomycin (Sigma-Aldrich, Switzerland) in T75 flasks at 37° C. and 5% CO2.
To study the effect of antiseptic substances, at concentrations that are currently used in marketed products, the vitality of HPDLF cells was assessed. […] As a control, cells were incubated with T. buffer without antiseptic agent. Three replicate wells per concentration were tested. After 1 minute of incubation at 37°, the supernatant was removed and the wells were washed once with 600 μl of the fresh medium. Thereafter, cells were incubated with 600 µL of the fresh medium containing 0.015 mg/ml AlamarBlue dye, for 4 hours at 37° C. Finally, 100 μL of the medium were removed from each well and transferred to a new 96-well plate and the absorbance was measured using a BioTek microplate reader (test wavelength: 570 nm; reference wavelength: 630 nm).
After the incubation with the antiseptic agents, the metabolic activity was measured using an AlamarBlue assay (after 4 h).

[2] = test system: L929 murine fibroblasts
Experimental: Mouse fibroblasts (L929 cell line) were used in this study as recommended cell line for cytotoxicity testing in accordance with EN ISO 10993-5.
The fibroblasts were purchased from ATCC and cultured in Dulbecco's Modified Eagle Medium-high glucose, supplemented with 10% fetal bovine serum and 1% penicillin-streptomycin (Sigma-Aldrich, Switzerland) in T75 flasks at 37° C. and 5% CO2. For the performance of the cytotoxicity experiments, L929 cells were seeded onto 96-well cell culture plates, 100 μ/well, at a density of 1×10^6 cells/mL to reach about 80% confluence after 24 hours.
After 60 minutes of incubation at 37°, the medium was removed and the wells were washed once with 100 μl of the fresh medium.
Thereafter, cells were incubated with 100 μL of the fresh medium containing 0.015 mg/ml AlamarBlue dye, for 2 hours at 37° C.
Finally, 100 μL of the media were removed from each well and transferred to a new 96-well plate and the absorbance was measured using a BioTek microplate reader (test wavelength: 570 nm; reference wavelength: 630 nm).
In order to test the cytocompatibility of alkaline buffers, a similar experiment was performed. However, the alkaline buffers were incubated for 10 minutes instead of 60 minutes. […]
After the incubation time, the metabolic activity, used as an indirect marker for cytotoxicity, was measured with an AlamarBlue assay. […]

[3] = precipitation test of PHMB and CHX in alkaline buffers (visual inspection/visible clouding); type: physicochemical

SMILES: C[S+](C)[O-] [DMSO]
- cell viability ([1]; 5% DMSO (negative control)): low cell viability

SMILES: [Na+].[OH-] [sodium hydroxide]
- metabolic activity (AlamarBlue) [2]: significant reduction in metabolic activity

- precipitation ([3]; CHX 0.06% in 0.05 M NaOH/0.05 M glycine, pH 11.06): precipitation occurs
- precipitation ([3]; CHX 0.06% in 0.05 M NaOH/0.1 M glycine, pH 9.9): no precipitation
SMILES: [H]/N=C(\N/C(=N/[H])NCCCCCCNC(=N)NC(=N)Nc1ccc(Cl)cc1)Nc1ccc(Cl)cc1 [CHX, 1,6-bis(4-chloro-phenylbiguanido)hexane]
- cell viability ([1]; CHX 0.06 and 0.12% in T. buffer, 1 minute): Low cell viability
